Reference: patent US8883841B2, “Oncogenic ras-specific cytotoxic compound and methods of use thereof” (The Board of Regents of the University of Texas System, priority 2005, dated 2014)
Read-outs that look alike come from different tables or passages of the source.

Key:
[1] = system: T-47D; assay: NCI in-vitro testing, T-47D (Breast Cancer)
[2] = system: EKVX; assay: NCI in-vitro testing, EKVX (Non-Small Cell Lung Cancer)
[3] = system: Ovca429; assay: Cell viability, Ovca429 ovary cancer cells; format: cell-based
[4] = system: TK-10; assay: NCI in-vitro testing, TK-10 (Renal Cancer)
[5] = system: SF-295; assay: NCI in-vitro testing, SF-295 (CNS Cancer)
[6] = system: NCI-H23; assay: NCI in-vitro testing, NCI-H23 (Non-Small Cell Lung Cancer)
[7] = system: MALME-3M; assay: NCI in-vitro testing, MALME-3M (Melanoma)
[8] = system: ACHN; assay: NCI in-vitro testing, ACHN (Renal Cancer)
[9] = system: OVCAR-3; assay: NCI in-vitro testing, OVCAR-3 (Ovarian Cancer)
[10] = system: H2087; assay: Cell viability, H2087 lung cancer cells; format: cell-based, human; conditions: Homo sapiens, NCI-H2087; H2087, Lung; read-out: IC50 (−LogM) (converted)
[11] = system: RXF 393; assay: NCI in-vitro testing, RXF 393 (Renal Cancer)
[12] = system: SW-620; assay: NCI in-vitro testing, SW-620 (Colon Cancer)
[13] = system: SK-OV-3; assay: NCI in-vitro testing, SK-OV-3 (Ovarian Cancer)
[14] = system: HOP-62; assay: NCI in-vitro testing, HOP-62 (Non-Small Cell Lung Cancer)
[15] = system: SK-MEL-28; assay: NCI in-vitro testing, SK-MEL-28 (Melanoma)
[16] = Homo sapiens, read-out: Log10 GI50 (converted)

## OCc1cn(Cc2ccc(Cl)cc2)c2ccccc12 [Oncrasin K060, 1H-Indole-3-methanol, 1-[(4-chlorophenyl)methyl]-]
[1]; Homo sapiens, T47D
  GI50: 26.7 nM
[1]; Homo sapiens, T47D, read-out: LC50
  CC50: > 100000 nM
[1]; Homo sapiens, T47D, read-out: Log10 GI50 (converted)
  GI50: 26.9 nM
[1]; T-47D
  TGI: 4.23E−7 Molar
[1]; T-47D, Log10 Concentration −4.0 Molar
  Percent Growth: −14%
[1]; T-47D, Log10 Concentration −5.0 Molar
  Percent Growth: −16%
[1]; T-47D, Log10 Concentration −6.0 Molar
  Percent Growth: −12%
[1]; T-47D, Log10 Concentration −7.0 Molar
  Percent Growth: 20%
[1]; T-47D, Log10 Concentration −8.0 Molar
  Percent Growth: 73%
[2]
  TGI: 6.47E−5 Molar
[2]; Homo sapiens
  GI50: 24000 nM
[2]; Homo sapiens, read-out: LC50
  CC50: > 100000 nM
[2]; [16]
  GI50: 24000 nM
[2]; Log10 Concentration −4.0 Molar
  Percent Growth: −22%
[2]; Log10 Concentration −5.0 Molar
  Percent Growth: 94%
[2]; Log10 Concentration −6.0 Molar
  Percent Growth: 107%
[2]; Log10 Concentration −7.0 Molar
  Percent Growth: 105%
[2]; Log10 Concentration −8.0 Molar
  Percent Growth: 103%
[3]
  IC50: 31600 nM
[4]; Homo sapiens, TK-10
  GI50: 15.3 nM
[4]; Homo sapiens, TK-10, read-out: LC50
  CC50: > 100000 nM
[4]; Homo sapiens, TK-10, read-out: Log10 GI50 (converted)
  GI50: 15.1 nM
[4]; TK-10
  TGI: 8.94E−8 Molar
[4]; TK-10, Log10 Concentration −4.0 Molar
  Percent Growth: −18%
[4]; TK-10, Log10 Concentration −5.0 Molar
  Percent Growth: −8%
[4]; TK-10, Log10 Concentration −6.0 Molar
  Percent Growth: −10%
[4]; TK-10, Log10 Concentration −7.0 Molar
  Percent Growth: −3%
[4]; TK-10, Log10 Concentration −8.0 Molar
  Percent Growth: 82%
[5]; Homo sapiens, SF-295
  GI50: 14300 nM
[5]; Homo sapiens, SF-295, read-out: LC50
  CC50: > 100000 nM
[5]; Homo sapiens, SF-295, read-out: Log10 GI50 (converted)
  GI50: 1410 nM
[5]; SF-295
  TGI: 3.52E−5 Molar
[5]; SF-295, Log10 Concentration −4.0 Molar
  Percent Growth: −15%
[5]; SF-295, Log10 Concentration −5.0 Molar
  Percent Growth: 18%
[5]; SF-295, Log10 Concentration −6.0 Molar
  Percent Growth: 56%
[5]; SF-295, Log10 Concentration −7.0 Molar
  Percent Growth: 80%
[5]; SF-295, Log10 Concentration −8.0 Molar
  Percent Growth: 104%
[6]; Homo sapiens, NCI-H23
  GI50: 2900 nM
[6]; Homo sapiens, NCI-H23, read-out: LC50
  CC50: 71100 nM
[6]; Homo sapiens, NCI-H23, read-out: Log10 GI50 (converted)
  GI50: 2880 nM
[6]; NCI-H23
  TGI: 2.10E−5 Molar
[6]; NCI-H23, Log10 Concentration −4.0 Molar
  Percent Growth: −54%
[6]; NCI-H23, Log10 Concentration −5.0 Molar
  Percent Growth: 31%
[6]; NCI-H23, Log10 Concentration −6.0 Molar
  Percent Growth: 67%
[6]; NCI-H23, Log10 Concentration −7.0 Molar
  Percent Growth: 82%
[6]; NCI-H23, Log10 Concentration −8.0 Molar
  Percent Growth: 94%
[7]; Homo sapiens, Malme-3M
  GI50: 51700 nM
[7]; Homo sapiens, Malme-3M, read-out: LC50
  CC50: 82000 nM
[7]; Homo sapiens, Malme-3M, read-out: Log10 GI50 (converted)
  GI50: 5130 nM
[7]; MALME-3M
  TGI: 2.37E−5 Molar
[7]; MALME-3M, Log10 Concentration −4.0 Molar
  Percent Growth: −58%
[7]; MALME-3M, Log10 Concentration −5.0 Molar
  Percent Growth: 35%
[7]; MALME-3M, Log10 Concentration −6.0 Molar
  Percent Growth: 88%
[7]; MALME-3M, Log10 Concentration −7.0 Molar
  Percent Growth: 114%
[7]; MALME-3M, Log10 Concentration −8.0 Molar
  Percent Growth: 105%
[8]
  TGI: 2.25E−5 Molar
[8]; Homo sapiens
  GI50: 2000 nM
[8]; Homo sapiens, read-out: LC50
  CC50: > 100000 nM
[8]; [16]
  GI50: 2630 nM
[8]; Log10 Concentration −4.0 Molar
  Percent Growth: −30%
[8]; Log10 Concentration −5.0 Molar
  Percent Growth: 10%
[8]; Log10 Concentration −6.0 Molar
  Percent Growth: 75%
[8]; Log10 Concentration −7.0 Molar
  Percent Growth: 92%
[8]; Log10 Concentration −8.0 Molar
  Percent Growth: 99%
[9]; Homo sapiens, OVCAR-3
  GI50: 569 nM
[9]; Homo sapiens, OVCAR-3, read-out: LC50
  CC50: 69100 nM
[9]; Homo sapiens, OVCAR-3, read-out: Log10 GI50 (converted)
  GI50: 575 nM
[9]; OVCAR-3
  TGI: 1.03E−5 Molar
[9]; OVCAR-3, Log10 Concentration −4.0 Molar
  Percent Growth: −60%
[9]; OVCAR-3, Log10 Concentration −5.0 Molar
  Percent Growth: 1%
[9]; OVCAR-3, Log10 Concentration −6.0 Molar
  Percent Growth: 42%
[9]; OVCAR-3, Log10 Concentration −7.0 Molar
  Percent Growth: 77%
[9]; OVCAR-3, Log10 Concentration −8.0 Molar
  Percent Growth: 95%
[10]
  IC50: 25100 nM
[11]; Homo sapiens, RXF 393
  GI50: < 10 nM
[11]; Homo sapiens, RXF 393, read-out: LC50
  CC50: 23200 nM
[11]; Homo sapiens, RXF 393, read-out: Log10 GI50 (converted)
  GI50: < 10 nM
[11]; RXF 393
  TGI: 2.44E−7 Molar
[11]; RXF 393, Log10 Concentration −4.0 Molar
  Percent Growth: −85%
[11]; RXF 393, Log10 Concentration −5.0 Molar
  Percent Growth: −30%
[11]; RXF 393, Log10 Concentration −6.0 Molar
  Percent Growth: −12%
[11]; RXF 393, Log10 Concentration −7.0 Molar
  Percent Growth: 7%
[11]; RXF 393, Log10 Concentration −8.0 Molar
  Percent Growth: 31%
[12]; Homo sapiens, SW-620
  GI50: 571 nM
[12]; Homo sapiens, SW-620, read-out: LC50
  CC50: > 100000 nM
[12]; Homo sapiens, SW-620, read-out: Log10 GI50 (converted)
  GI50: 575 nM
[12]; SW-620
  TGI: 1.80E−5 Molar
[12]; SW-620, Log10 Concentration −4.0 Molar
  Percent Growth: −46%
[12]; SW-620, Log10 Concentration −5.0 Molar
  Percent Growth: 16%
[12]; SW-620, Log10 Concentration −6.0 Molar
  Percent Growth: 39%
[12]; SW-620, Log10 Concentration −7.0 Molar
  Percent Growth: 83%
[12]; SW-620, Log10 Concentration −8.0 Molar
  Percent Growth: 94%
[13]; Homo sapiens, SK-OV-3
  GI50: 1820 nM
[13]; Homo sapiens, SK-OV-3, read-out: LC50
  CC50: > 100000 nM
[13]; Homo sapiens, SK-OV-3, read-out: Log10 GI50 (converted)
  GI50: 1820 nM
[13]; SK-OV-3
  TGI: 2.96E−5 Molar
[13]; SK-OV-3, Log10 Concentration −4.0 Molar
  Percent Growth: −16%
[13]; SK-OV-3, Log10 Concentration −5.0 Molar
  Percent Growth: 16%
[13]; SK-OV-3, Log10 Concentration −6.0 Molar
  Percent Growth: 52%
[13]; SK-OV-3, Log10 Concentration −7.0 Molar
  Percent Growth: 85%
[13]; SK-OV-3, Log10 Concentration −8.0 Molar
  Percent Growth: 96%
[14]; HOP-62
  TGI: 1.93E−5 Molar
[14]; HOP-62, Log10 Concentration −4.0 Molar
  Percent Growth: −37%
[14]; HOP-62, Log10 Concentration −5.0 Molar
  Percent Growth: 15%
[14]; HOP-62, Log10 Concentration −6.0 Molar
  Percent Growth: 36%
[14]; HOP-62, Log10 Concentration −7.0 Molar
  Percent Growth: 07%
[14]; HOP-62, Log10 Concentration −8.0 Molar
  Percent Growth: 91%
[14]; Homo sapiens, HOP-62
  GI50: 300 nM
[14]; Homo sapiens, HOP-62, read-out: LC50
  CC50: > 100000 nM
[14]; Homo sapiens, HOP-62, read-out: Log10 GI50 (converted)
  GI50: 363 nM
[15]; Homo sapiens, SK-MEL-28
  GI50: 18000 nM
[15]; Homo sapiens, SK-MEL-28, read-out: LC50
  CC50: > 100000 nM
[15]; Homo sapiens, SK-MEL-28, read-out: Log10 GI50 (converted)
  GI50: 17800 nM
[15]; SK-MEL-28
  TGI: 4.44E−5 Molar
[15]; SK-MEL-28, Log10 Concentration −4.0 Molar
  Percent Growth: −15%
[15]; SK-MEL-28, Log10 Concentration −5.0 Molar
  Percent Growth: 82%
[15]; SK-MEL-28, Log10 Concentration −6.0 Molar
  Percent Growth: 93%
[15]; SK-MEL-28, Log10 Concentration −7.0 Molar
  Percent Growth: 99%
[15]; SK-MEL-28, Log10 Concentration −8.0 Molar
  Percent Growth: 93%
